From paper PMC9329436, “Optimization of the 4-anilinoquin(az)oline scaffold as epidermal growth factor receptor (EGFR) inhibitors for chordoma utilizing a toxicology profiling assay platform” (Scientific Reports, 2022) come the findings set out here.

SMILES strings stand for the structures. Read-outs that look alike come from different tables or passages of the source.

Type in all cases: biochemical
Experiment [1] concerns the target T1, 320 wild-type protein kinases (Homo sapiens, UniProt O15111).
T1 sequence (O15111 1-745): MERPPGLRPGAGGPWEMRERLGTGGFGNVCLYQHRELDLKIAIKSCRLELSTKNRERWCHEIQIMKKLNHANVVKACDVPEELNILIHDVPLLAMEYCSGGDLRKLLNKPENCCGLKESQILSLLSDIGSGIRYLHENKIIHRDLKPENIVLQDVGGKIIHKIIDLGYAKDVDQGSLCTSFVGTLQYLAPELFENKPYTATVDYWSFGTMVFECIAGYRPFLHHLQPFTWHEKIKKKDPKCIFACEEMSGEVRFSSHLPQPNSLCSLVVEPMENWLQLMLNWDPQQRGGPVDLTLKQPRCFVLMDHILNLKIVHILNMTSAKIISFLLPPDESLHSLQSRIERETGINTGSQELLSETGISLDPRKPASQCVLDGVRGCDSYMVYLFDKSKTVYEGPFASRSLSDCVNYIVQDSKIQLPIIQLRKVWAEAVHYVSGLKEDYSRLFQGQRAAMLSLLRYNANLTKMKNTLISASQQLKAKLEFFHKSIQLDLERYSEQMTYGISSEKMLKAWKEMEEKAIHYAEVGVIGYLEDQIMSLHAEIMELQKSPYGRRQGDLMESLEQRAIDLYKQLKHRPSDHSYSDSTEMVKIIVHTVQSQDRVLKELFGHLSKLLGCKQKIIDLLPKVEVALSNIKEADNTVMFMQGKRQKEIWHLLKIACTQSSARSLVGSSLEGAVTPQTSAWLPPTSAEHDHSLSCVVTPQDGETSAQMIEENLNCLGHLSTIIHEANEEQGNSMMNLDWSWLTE
The conditions noted are these: IKK-alpha, singlicate. An excerpt:
(§1) Table S4. Profiling of two compounds at two concentrations against 320 wild-type protein kinases; singlicate measurement; Residual activities (% of control).

For experiment [2], the target named is 320 wild-type protein kinases (Homo sapiens, UniProt P16591). The note with it: FER, singlicate.
Sequence of 320 wild-type protein kinases (Homo sapiens, UniProt P16591) (P16591 whole entry): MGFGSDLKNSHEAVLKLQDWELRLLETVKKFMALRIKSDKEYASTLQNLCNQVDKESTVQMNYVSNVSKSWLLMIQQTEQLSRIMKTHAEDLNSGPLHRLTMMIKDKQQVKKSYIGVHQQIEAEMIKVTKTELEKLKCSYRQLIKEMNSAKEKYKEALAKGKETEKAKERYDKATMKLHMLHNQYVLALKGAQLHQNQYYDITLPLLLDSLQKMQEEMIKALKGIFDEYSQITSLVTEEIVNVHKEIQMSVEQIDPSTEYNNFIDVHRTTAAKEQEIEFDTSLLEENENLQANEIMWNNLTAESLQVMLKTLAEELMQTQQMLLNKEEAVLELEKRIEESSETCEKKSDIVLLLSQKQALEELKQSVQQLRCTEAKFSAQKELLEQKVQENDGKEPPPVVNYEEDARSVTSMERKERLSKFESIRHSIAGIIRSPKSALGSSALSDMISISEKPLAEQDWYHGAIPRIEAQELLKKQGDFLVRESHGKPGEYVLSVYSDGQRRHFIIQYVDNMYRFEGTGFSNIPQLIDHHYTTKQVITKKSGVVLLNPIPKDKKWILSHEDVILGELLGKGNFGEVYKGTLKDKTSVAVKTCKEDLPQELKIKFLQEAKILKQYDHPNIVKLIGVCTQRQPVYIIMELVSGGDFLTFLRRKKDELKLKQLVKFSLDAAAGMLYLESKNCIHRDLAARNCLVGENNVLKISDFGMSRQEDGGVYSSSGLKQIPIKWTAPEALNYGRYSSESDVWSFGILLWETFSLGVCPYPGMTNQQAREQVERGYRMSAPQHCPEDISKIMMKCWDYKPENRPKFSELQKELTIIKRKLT
Text: as §1

Experiment [3] deals with 320 wild-type protein kinases (Homo sapiens, UniProt P22455). The conditions noted are these: singlicate.
Sequence of 320 wild-type protein kinases (Homo sapiens, UniProt P22455) (P22455 22-802): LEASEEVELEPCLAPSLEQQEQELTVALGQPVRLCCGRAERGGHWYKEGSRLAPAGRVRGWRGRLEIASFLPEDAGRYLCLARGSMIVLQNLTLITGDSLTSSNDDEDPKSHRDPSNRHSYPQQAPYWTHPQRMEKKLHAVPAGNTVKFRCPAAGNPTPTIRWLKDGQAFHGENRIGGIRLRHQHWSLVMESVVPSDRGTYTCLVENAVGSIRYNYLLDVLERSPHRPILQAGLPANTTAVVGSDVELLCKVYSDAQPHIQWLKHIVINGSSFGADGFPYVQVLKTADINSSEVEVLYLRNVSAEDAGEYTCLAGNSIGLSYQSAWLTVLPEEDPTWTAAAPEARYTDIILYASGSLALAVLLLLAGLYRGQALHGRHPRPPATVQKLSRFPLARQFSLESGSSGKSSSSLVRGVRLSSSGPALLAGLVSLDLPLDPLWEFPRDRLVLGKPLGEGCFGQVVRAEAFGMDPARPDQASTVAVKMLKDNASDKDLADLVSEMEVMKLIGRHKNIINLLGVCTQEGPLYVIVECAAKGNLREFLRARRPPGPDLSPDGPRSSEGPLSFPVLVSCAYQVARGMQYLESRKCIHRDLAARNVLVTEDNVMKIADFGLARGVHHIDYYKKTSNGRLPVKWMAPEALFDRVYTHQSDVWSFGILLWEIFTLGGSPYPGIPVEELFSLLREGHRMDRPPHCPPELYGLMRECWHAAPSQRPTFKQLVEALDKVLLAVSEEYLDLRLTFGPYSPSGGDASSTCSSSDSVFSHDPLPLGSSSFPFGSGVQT
Text: as §1

Experiment [4] deals with 320 wild-type protein kinases (Homo sapiens, UniProt P48730). The conditions noted are these: CK1-delta, singlicate.
Sequence of 320 wild-type protein kinases (Homo sapiens, UniProt P48730) (P48730 whole entry): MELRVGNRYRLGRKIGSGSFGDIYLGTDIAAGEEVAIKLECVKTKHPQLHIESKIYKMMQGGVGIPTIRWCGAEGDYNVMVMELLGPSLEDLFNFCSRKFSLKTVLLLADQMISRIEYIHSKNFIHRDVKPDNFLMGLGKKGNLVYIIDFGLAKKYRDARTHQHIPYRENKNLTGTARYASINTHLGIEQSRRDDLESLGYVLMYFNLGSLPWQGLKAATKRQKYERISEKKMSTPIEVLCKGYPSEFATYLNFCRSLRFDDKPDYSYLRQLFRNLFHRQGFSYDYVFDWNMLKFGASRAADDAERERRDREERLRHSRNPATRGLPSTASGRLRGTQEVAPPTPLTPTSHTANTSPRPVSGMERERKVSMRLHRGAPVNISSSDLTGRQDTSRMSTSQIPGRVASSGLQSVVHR
Text: as §1

Experiment [5] concerns the target 320 wild-type protein kinases (Homo sapiens, UniProt Q16513). The conditions noted are these: singlicate.
Text: as §1

The target in experiment [6] is T2, 320 wild-type protein kinases (Homo sapiens, UniProt Q8NE63).
T2 sequence (Q8NE63 1-616): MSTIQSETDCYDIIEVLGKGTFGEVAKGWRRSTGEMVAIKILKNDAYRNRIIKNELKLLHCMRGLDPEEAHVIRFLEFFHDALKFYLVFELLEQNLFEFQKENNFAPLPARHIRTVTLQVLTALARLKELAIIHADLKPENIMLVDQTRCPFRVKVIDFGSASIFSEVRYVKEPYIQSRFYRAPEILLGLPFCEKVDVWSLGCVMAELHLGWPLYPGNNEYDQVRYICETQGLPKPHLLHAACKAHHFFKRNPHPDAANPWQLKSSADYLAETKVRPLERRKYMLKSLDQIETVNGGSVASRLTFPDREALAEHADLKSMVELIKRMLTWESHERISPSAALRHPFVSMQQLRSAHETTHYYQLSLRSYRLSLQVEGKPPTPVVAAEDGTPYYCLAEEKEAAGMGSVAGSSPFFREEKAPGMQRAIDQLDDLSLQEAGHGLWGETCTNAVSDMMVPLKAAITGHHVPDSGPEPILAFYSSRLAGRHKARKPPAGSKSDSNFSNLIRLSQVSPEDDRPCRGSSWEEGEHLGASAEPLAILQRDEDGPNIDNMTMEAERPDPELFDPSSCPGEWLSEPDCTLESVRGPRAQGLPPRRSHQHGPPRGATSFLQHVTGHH
The note with it: singlicate.
Text: as §1

Experiment [7] addresses T3, 320 wild-type protein kinases (Homo sapiens, UniProt Q9H093).
T3 sequence (Q9H093 1-628): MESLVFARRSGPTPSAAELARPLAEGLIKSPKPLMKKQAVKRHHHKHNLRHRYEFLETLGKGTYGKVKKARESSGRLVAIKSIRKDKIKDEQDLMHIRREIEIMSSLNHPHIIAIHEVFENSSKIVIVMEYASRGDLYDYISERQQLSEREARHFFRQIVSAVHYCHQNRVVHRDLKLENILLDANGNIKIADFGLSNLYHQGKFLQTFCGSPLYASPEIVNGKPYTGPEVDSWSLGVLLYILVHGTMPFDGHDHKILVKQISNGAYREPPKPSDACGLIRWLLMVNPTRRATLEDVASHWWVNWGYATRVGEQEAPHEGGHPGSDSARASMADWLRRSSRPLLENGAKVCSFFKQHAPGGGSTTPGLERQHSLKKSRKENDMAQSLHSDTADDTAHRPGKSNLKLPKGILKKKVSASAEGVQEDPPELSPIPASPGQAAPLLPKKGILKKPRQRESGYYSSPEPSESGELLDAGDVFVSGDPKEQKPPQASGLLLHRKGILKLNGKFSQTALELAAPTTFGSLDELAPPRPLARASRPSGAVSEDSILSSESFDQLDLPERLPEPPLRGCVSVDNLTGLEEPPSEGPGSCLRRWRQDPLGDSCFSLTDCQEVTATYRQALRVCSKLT
The note with it: kinase SNARK, singlicate.
Text: as §1

Experiment [8] concerns the target 320 wild-type protein kinases (Homo sapiens, UniProt Q9Y5S2). The note with it: CDC42BPB, singlicate.
Text: as §1

Sequence of 320 wild-type protein kinases (Homo sapiens, UniProt Q16513) (Q16513 whole entry): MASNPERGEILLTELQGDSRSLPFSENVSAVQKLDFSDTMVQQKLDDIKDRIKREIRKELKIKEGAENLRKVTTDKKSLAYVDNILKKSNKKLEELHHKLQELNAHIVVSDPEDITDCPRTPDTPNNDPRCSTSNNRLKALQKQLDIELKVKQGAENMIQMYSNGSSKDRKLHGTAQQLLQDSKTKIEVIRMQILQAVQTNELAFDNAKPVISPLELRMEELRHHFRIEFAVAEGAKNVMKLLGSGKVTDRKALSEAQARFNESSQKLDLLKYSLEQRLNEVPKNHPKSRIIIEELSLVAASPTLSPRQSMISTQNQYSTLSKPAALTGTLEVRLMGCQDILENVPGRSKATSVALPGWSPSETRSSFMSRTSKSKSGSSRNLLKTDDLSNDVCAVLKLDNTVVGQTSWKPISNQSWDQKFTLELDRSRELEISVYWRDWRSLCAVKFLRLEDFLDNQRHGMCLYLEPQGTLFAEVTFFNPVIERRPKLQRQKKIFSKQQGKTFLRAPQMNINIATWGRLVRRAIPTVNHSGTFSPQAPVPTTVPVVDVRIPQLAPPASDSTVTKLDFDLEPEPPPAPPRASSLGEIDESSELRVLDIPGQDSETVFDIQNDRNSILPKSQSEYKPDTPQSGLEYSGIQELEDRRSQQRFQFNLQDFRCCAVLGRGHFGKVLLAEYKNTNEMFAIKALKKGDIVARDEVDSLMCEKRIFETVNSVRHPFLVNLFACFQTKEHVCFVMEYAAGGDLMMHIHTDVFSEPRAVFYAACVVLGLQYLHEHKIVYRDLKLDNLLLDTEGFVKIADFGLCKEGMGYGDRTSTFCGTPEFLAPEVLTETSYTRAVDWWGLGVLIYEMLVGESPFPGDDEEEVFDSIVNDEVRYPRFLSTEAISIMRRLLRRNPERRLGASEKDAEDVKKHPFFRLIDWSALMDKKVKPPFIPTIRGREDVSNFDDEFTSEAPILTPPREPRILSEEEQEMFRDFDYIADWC
Sequence of 320 wild-type protein kinases (Homo sapiens, UniProt Q9Y5S2) (Q9Y5S2 whole entry): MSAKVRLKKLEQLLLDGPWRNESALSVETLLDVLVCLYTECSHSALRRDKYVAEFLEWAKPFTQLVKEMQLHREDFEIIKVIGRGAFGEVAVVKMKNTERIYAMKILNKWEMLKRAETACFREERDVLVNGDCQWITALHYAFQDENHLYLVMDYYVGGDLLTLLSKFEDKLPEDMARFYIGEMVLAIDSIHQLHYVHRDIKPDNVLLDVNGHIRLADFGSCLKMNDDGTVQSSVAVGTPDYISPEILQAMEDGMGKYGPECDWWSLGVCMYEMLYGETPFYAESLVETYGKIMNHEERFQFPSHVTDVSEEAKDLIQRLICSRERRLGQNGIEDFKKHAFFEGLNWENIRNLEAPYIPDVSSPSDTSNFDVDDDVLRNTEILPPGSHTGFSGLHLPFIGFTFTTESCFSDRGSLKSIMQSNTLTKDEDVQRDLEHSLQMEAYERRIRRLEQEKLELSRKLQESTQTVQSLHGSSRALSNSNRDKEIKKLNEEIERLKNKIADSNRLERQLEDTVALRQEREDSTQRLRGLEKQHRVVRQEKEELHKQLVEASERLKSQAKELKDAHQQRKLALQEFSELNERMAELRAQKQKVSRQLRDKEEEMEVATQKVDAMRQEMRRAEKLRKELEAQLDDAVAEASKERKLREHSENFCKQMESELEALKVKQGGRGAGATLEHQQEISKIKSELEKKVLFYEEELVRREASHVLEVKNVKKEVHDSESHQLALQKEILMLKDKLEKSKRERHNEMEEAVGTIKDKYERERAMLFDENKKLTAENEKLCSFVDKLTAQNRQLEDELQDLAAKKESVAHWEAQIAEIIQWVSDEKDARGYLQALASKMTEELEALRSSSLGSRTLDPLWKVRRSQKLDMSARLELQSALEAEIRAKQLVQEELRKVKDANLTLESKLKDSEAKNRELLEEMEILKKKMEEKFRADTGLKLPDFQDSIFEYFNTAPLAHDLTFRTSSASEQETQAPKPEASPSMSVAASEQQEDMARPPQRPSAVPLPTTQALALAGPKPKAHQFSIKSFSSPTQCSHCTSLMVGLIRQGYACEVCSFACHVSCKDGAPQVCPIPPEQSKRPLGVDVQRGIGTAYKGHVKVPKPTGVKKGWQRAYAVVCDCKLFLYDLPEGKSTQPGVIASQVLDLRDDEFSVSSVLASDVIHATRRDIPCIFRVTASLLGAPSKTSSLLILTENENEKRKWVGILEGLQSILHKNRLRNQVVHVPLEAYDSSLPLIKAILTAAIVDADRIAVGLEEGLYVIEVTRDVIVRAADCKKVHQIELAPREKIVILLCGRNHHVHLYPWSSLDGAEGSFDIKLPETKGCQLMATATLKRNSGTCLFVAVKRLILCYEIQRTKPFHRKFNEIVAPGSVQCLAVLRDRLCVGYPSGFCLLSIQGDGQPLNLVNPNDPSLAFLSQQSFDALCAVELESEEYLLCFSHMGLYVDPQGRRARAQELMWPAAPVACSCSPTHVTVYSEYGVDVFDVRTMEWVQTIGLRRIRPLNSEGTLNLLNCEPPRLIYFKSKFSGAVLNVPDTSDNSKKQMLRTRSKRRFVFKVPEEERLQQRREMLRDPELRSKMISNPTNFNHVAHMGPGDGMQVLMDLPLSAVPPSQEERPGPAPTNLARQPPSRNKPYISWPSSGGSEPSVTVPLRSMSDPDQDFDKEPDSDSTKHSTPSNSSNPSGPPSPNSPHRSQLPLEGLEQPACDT

Consider `C#Cc1cc(Nc2ncnc3cc(OC)c(OC)cc23)ccc1Cl` [Compound 45], for which the Residual activity in experiment [1] (1.0E-06 M) is given as 95 % of control; in experiment [1] (1.0E-07 M), 106 % of control; in experiment [2] (1.0E-06 M), 93 % of control; in experiment [2] (1.0E-07 M), 115 % of control; in experiment [3] (FGF-R4, 1.0E-06 M), 96 % of control; in experiment [3] (FGF-R4, 1.0E-07 M), 100 % of control. The Residual activity in experiment [4] (1.0E-06 M) is on record as 111 % of control; in experiment [4] (1.0E-07 M), 129 % of control; in experiment [5] (PRK2, 1.0E-06 M) it was 95 % of control; in experiment [5] (PRK2, 1.0E-07 M), 92 % of control; in experiment [6] (HIPK4, 1.0E-06 M) it was 57 % of control; in experiment [6] (HIPK4, 1.0E-07 M) it was 98 % of control. In addition, the Residual activity in experiment [8] (1.0E-06 M) was 95 % of control; in experiment [8] (1.0E-07 M) it was 98 % of control. The results for the “Residual activity, SNARK” value in experiment [7] (assay conc. 1.0E-06 M) and in experiment [7] (assay conc. 1.0E-07 M) were 87 % of control and 88 % of control, respectively.

As to `C#Cc1cc(Nc2ncnc3cc(I)ccc23)ccc1Cl` [Compound 41], the Residual activity in experiment [1] (1.0E-06 M) is reported as 100 % of control; in experiment [1] (1.0E-07 M) it was 109 % of control; in experiment [2] (1.0E-06 M) it was 110 % of control; in experiment [2] (1.0E-07 M), 113 % of control; in experiment [3] (FGF-R4, 1.0E-06 M), 88 % of control; in experiment [3] (FGF-R4, 1.0E-07 M), 96 % of control. Also, the Residual activity in experiment [4] (1.0E-06 M) is given as 115 % of control; in experiment [4] (1.0E-07 M), 134 % of control; in experiment [5] (PRK2, 1.0E-06 M), 88 % of control; in experiment [5] (PRK2, 1.0E-07 M), 85 % of control; in experiment [6] (HIPK4, 1.0E-06 M), 97 % of control; in experiment [6] (HIPK4, 1.0E-07 M) it was 104 % of control. Besides, the Residual activity was 98 % of control in experiment [8] (1.0E-06 M) and 101 % of control in experiment [8] (1.0E-07 M). Also, the “Residual activity, SNARK” value in experiment [7] (assay conc. 1.0E-06 M) was 83 % of control; in experiment [7] (assay conc. 1.0E-07 M) it was 101 % of control.
